# Assay results: patent publication US20100279990A1, “ANTIPROLIFERATIVE COMPOUNDS, COMPOSITIONS AND METHODS OF USE” (RAMOT AT TEL-AVIV UNIVERSITY LTD., priority 2006, published 2010)
# Tests used:
# [1] = system: Caspase 3 activity in human Jurkat lymphoma cells; assay: Caspase 3 activity in human Jurkat lymphoma cell-line, fluorimetric Ac-DEVD-AMC; format: cell-based; details: 4 hr after exposure, compared to vehicle treated cells
# Protocol: This example illustrates Caspase 3 activity data obtained by administering compound (Ia) to a human Jurkat lymphoma cell-line. The results are depicted FIG. 8A. Each point is the mean of 2 determinations.
# Caspase 3 activity was measured by an enzymatic fluorimetric method using a fluorigenic substrate (Ac-DEVD-AMC), which produces blue fluorescence detected at 360 nm wavelength. See Garcia-Calvo et al., J Biol Chem, 273(49), 32608-13 (1998). When AMC is cleaved from the substrate by caspase-3, and caspase-3-like enzymes, it produces a yellow-green fluorescence, which can be monitored by a fluorimeter at 460 nm. The amount of yellow green fluorescence is proportional to the activity of caspase-3 in the cell extract sample.
# The human Jurkat lymphoma cell-line, as used in FIG. 8A, and the human MDR colon cancer LS1034 lysates, as used in FIG. 8B, were prepared by Triton X-100 extraction 4 hr after exposure to the applicable compound (10 or 20 μM) or the vehicle. Whole cell lysate was added to a buffer containing 100 μM peptide substrate, 100 mM HEPES, 10% glycerol, 1 mM EDTA and 10 mM dithiothreitol. Measurements were taken every 5 min for 80 min. These experiments were also monitored in the presence of a specific caspase-3 inhibitor, DEVD-AMC-CHO, which was added after 45 or 60 min to the reaction mixture, to ascertain the specificity of the enzyme.
# [2] = system: BCL2 expression in human Jurkat lymphoma cells; assay: Western blot of BCL2 expression in human Jurkat lymphoma cell-line; format: cell-based; details: FIG. 10
# Source text: This example illustrates western blot data corresponding to BCL2 expression in a human Jurkat lymphoma cell-line treated with different concentrations of compound (Ia). The results are depicted in FIG. 10.
# Jurkat Lymphoma cells = assay: Viability of Jurkat Lymphoma cells, combination with Doxorubicin; format: cell-based; details: Homo sapiens, read-out: inhibition of cell viability
# [3] = system: human Jurkat lymphoma cells; assay: Viability of human Jurkat lymphoma cells, dexamethasone alone and in combination; format: cell-based
# [4] = system: human colon carcinoma cells (HT29); assay: HT29 human colon carcinoma s.c. tumor in Nude CD1 male mice; format: in vivo
# Source text: This example illustrates the effect of several compounds, including an exemplary compound of the present invention, on tumor volume. tumor weight and body weight in mice. Nude CD1 male mice were purchased from Harlan (Israel). Animals were housed under controlled conditions (temperature, humidity) and were given food and water ad libitum. After one week of acclimatization animals were inoculated s.c. with human colon carcinoma cells (HT29) (2,000,000 cell/animals.). Therapy began 8 days after inoculation, at which time the animals were divided randomly into 4 groups (7-8 mice/group) and administered ip 3 times weekly for 4 weeks with the following compounds: […] Body weight and tumor volume were measured weekly. Tumor volume is defined as (shortest diameter)^2×(longest diameter)×0.5. At the end of the treatment, animals were sacrificed and tumors and organs collected and weighed.
# CXF HT29 = assay: Monolayer Assay, PI: CXF HT29 (Colorectal); format: cell-based, human
# Source text: (§1) This example illustrates cell proliferation data in the form of IC50, IC70 and IC90 values obtained by exposure of human cancer cell-lines to compound (Ia). […].
# LXF 289L = assay: Monolayer Assay, PI: LXF 289L (Lung); format: cell-based, human
# Source text: as §1
# LXF 529L = assay: Monolayer Assay, PI: LXF 529L (Lung); format: cell-based, human
# Source text: as §1
# LXF H460 = assay: Monolayer Assay, PI: LXF H460 (Lung); format: cell-based, human
# Source text: as §1
# MEXF 514L = assay: Monolayer Assay, PI: MEXF 514L (Melanoma); format: cell-based, human
# Source text: as §1
# PRXF PC3M = assay: Monolayer Assay, PI: PRXF PC3M (Prostate); format: cell-based, human
# Source text: as §1
# RXF 393NL = assay: Monolayer Assay, PI: RXF 393NL (Renal); format: cell-based, human
# Source text: as §1
# [5] = system: human colon carcinoma cells (HT29)
smiles,measurement,setting,value
"CN[C@H]1CC[C@@H](c2ccc(Cl)c(Cl)c2)c2ccc(C#CCCCO)cc21 [compound (Ia), (1S-cis)-4-(3,4-dichlorophenyl)-7-(5-hydroxy-1-pentyn-1-yl)-1,2,3,4-tetrahydro-N-methyl-1-naphthalenamine hydroiodide]",Caspase 3 activity,[1],increase in the activity of the caspase-3
same,BCL2 expression,[2],rapid dose dependent decrease in the levels of the protooncogene Bcl2
same,cytotoxicity at 5 µM,Jurkat Lymphoma cells; 5 μM alone,18%
same,cytotoxicity at 10 µM,Jurkat Lymphoma cells; 10 μM alone,59.5%
same,inhibition of cell viability compared with sertraline and paroxetine,[3]; FIG. 13A,higher than that produced by either sertraline or paroxetine
same,cytotoxicity at 20 µM,"[3]; Homo sapiens, 20 μM alone, FIG. 13B, read-out: inhibition of cell viability",69%
same,tumor weight,"[4]; HT29 tumor in nude mice, end of treatment, FIG. 17",very similar to the tumor weight of mice treated with 5 FU
same,tumor volume,"[4]; HT29 tumor in nude mice, ip 3 times weekly, after 3 and 4 weeks of therapy, FIG. 16",significantly decreased compared to the control groups
same,decrease in body weight,"[4]; compared to 5 FU or controls, FIG. 18",10%
same,"histopathological assessment of spleen, liver and kidney",[4]; end of treatment,change in capsule fibrosis at random
same,efficacy in inhibiting human colon cancer tumor growth,"[4]; mice model, 30 mg/kg ip",high efficacy superior to sertraline
same,Test/Control (%),CXF HT29; 2.3 μg/ml,100%
same,Test/Control activity class,CXF HT29; 2.3 μg/ml,− (− (T/C = 50))
same,Test/Control (%),CXF HT29; 7.5 μg/ml,3%
same,Test/Control activity class,CXF HT29; 7.5 μg/ml,+++ (+++ (T/C < 10))
same,Test/Control (%),CXF HT29; 23. μg/ml,1%
same,Test/Control activity class,CXF HT29; 23. μg/ml,+++ (+++ (T/C < 10))
same,Test/Control (%),CXF HT29; 75. μg/ml,1%
same,Test/Control activity class,CXF HT29; 75. μg/ml,+++ (+++ (T/C < 10))
same,Test/Control (%),CXF HT29; .75 μg/ml,99%
same,Test/Control activity class,CXF HT29; .75 μg/ml,− (− (T/C = 50))
same,Test/Control (%),LXF 289L; 2.3 μg/ml,101%
same,Test/Control activity class,LXF 289L; 2.3 μg/ml,− (− (T/C = 50))
same,Test/Control (%),LXF 289L; 7.5 μg/ml,42%
same,Test/Control activity class,LXF 289L; 7.5 μg/ml,+ (+ (30 <= T/C < 50))
same,Test/Control (%),LXF 289L; 23. μg/ml,4%
same,Test/Control activity class,LXF 289L; 23. μg/ml,+++ (+++ (T/C < 10))
same,Test/Control (%),LXF 289L; 75. μg/ml,3%
same,Test/Control activity class,LXF 289L; 75. μg/ml,+++ (+++ (T/C < 10))
same,Test/Control (%),LXF 289L; .75 μg/ml,94%
same,Test/Control activity class,LXF 289L; .75 μg/ml,− (− (T/C = 50))
same,Test/Control (%),LXF 529L; 2.3 μg/ml,97%
same,Test/Control activity class,LXF 529L; 2.3 μg/ml,− (− (T/C = 50))
same,Test/Control (%),LXF 529L; 7.5 μg/ml,17%
same,Test/Control activity class,LXF 529L; 7.5 μg/ml,++ (++ (10 <= T/C < 30))
same,Test/Control (%),LXF 529L; 23. μg/ml,3%
same,Test/Control activity class,LXF 529L; 23. μg/ml,+++ (+++ (T/C < 10))
same,Test/Control (%),LXF 529L; 75. μg/ml,5%
same,Test/Control activity class,LXF 529L; 75. μg/ml,+++ (+++ (T/C < 10))
same,Test/Control (%),LXF 529L; .75 μg/ml,93%
same,Test/Control activity class,LXF 529L; .75 μg/ml,− (− (T/C = 50))
same,Test/Control (%),LXF H460; 2.3 μg/ml,95%
same,Test/Control activity class,LXF H460; 2.3 μg/ml,− (− (T/C = 50))
same,Test/Control (%),LXF H460; 7.5 μg/ml,2%
same,Test/Control activity class,LXF H460; 7.5 μg/ml,+++ (+++ (T/C < 10))
same,Test/Control (%),LXF H460; 23. μg/ml,1%
same,Test/Control activity class,LXF H460; 23. μg/ml,+++ (+++ (T/C < 10))
same,Test/Control (%),LXF H460; 75. μg/ml,1%
same,Test/Control activity class,LXF H460; 75. μg/ml,+++ (+++ (T/C < 10))
same,Test/Control (%),LXF H460; .75 μg/ml,101%
same,Test/Control activity class,LXF H460; .75 μg/ml,− (− (T/C = 50))
same,Test/Control (%),MEXF 514L; 2.3 μg/ml,90%
same,Test/Control activity class,MEXF 514L; 2.3 μg/ml,− (− (T/C = 50))
same,Test/Control (%),MEXF 514L; 7.5 μg/ml,3%
same,Test/Control activity class,MEXF 514L; 7.5 μg/ml,+++ (+++ (T/C < 10))
same,Test/Control (%),MEXF 514L; 23. μg/ml,2%
same,Test/Control activity class,MEXF 514L; 23. μg/ml,+++ (+++ (T/C < 10))
same,Test/Control (%),MEXF 514L; 75. μg/ml,3%
same,Test/Control activity class,MEXF 514L; 75. μg/ml,+++ (+++ (T/C < 10))
same,Test/Control (%),MEXF 514L; .75 μg/ml,108%
same,Test/Control activity class,MEXF 514L; .75 μg/ml,− (− (T/C = 50))
same,Test/Control (%),PRXF PC3M; 2.3 μg/ml,91%
same,Test/Control activity class,PRXF PC3M; 2.3 μg/ml,− (− (T/C = 50))
same,Test/Control (%),PRXF PC3M; 7.5 μg/ml,4%
same,Test/Control activity class,PRXF PC3M; 7.5 μg/ml,+++ (+++ (T/C < 10))
same,Test/Control (%),PRXF PC3M; 23. μg/ml,1%
same,Test/Control activity class,PRXF PC3M; 23. μg/ml,+++ (+++ (T/C < 10))
same,Test/Control (%),PRXF PC3M; 75. μg/ml,1%
same,Test/Control activity class,PRXF PC3M; 75. μg/ml,+++ (+++ (T/C < 10))
same,Test/Control (%),PRXF PC3M; .75 μg/ml,95%
same,Test/Control activity class,PRXF PC3M; .75 μg/ml,− (− (T/C = 50))
same,Test/Control (%),RXF 393NL; 2.3 μg/ml,91%
same,Test/Control activity class,RXF 393NL; 2.3 μg/ml,− (− (T/C = 50))
same,Test/Control (%),RXF 393NL; 7.5 μg/ml,5%
same,Test/Control activity class,RXF 393NL; 7.5 μg/ml,+++ (+++ (T/C < 10))
same,Test/Control (%),RXF 393NL; 23. μg/ml,1%
same,Test/Control activity class,RXF 393NL; 23. μg/ml,+++ (+++ (T/C < 10))
same,Test/Control (%),RXF 393NL; 75. μg/ml,1%
same,Test/Control activity class,RXF 393NL; 75. μg/ml,+++ (+++ (T/C < 10))
same,Test/Control (%),RXF 393NL; .75 μg/ml,96%
same,Test/Control activity class,RXF 393NL; .75 μg/ml,− (− (T/C = 50))
same,potency compared with paroxetine,"[5]; 10-30 μM, FIG. 2A",higher potency than paroxetine
same,potency compared with paroxetine and fluoxetine,"[5]; equimolar doses, FIG. 2B",significantly more potent than paroxetine and fluoxetine
